{"source": "patent US12410160B2", "about": "(Gilead Sciences, Inc., priority 2021, dated 2025)", "note": "pIC50: −log10 of the molar value.", "data": [{"molecular_target": "human KHK-C (Homo sapiens (Human), UniProt P50053)", "sequence (P50053 whole entry, the tested form may be a part)": "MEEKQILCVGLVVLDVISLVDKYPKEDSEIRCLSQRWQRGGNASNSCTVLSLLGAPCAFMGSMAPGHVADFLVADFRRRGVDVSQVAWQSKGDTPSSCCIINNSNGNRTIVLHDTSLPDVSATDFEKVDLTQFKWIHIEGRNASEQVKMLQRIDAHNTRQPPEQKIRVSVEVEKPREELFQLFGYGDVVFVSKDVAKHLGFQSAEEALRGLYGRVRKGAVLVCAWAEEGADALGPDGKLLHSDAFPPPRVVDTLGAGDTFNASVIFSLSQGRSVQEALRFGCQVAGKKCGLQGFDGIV", "assay": "KHK Biochemical Assay (IC50), ADP-Glo, KHK-C", "details": "ADP-Glo; average of at least two separate assays", "method": "(§1) The His-tagged fusion protein was expressed using BL21 (DE3) with IPTG induction and purified using Ni-NTA column followed by dialysis into final buffer containing 25 mM Tris-HCl pH 8.0, 250 mM NaCl.\n(§2) KHK Biochemical Assay (IC50)\n(§3) Compounds were tested for KHK enzyme inhibition in a high-throughput 384-well assay format using the ADP-Glo assay (Promega) in buffer consisting of 50 mM Hepes (pH 7.4), 140 mM KCl, 5 mM MgCl2 and 0.01% Triton-X. 0.2 nM. […] Compounds were serially diluted (1:3) in DMSO.\n(§4) The compounds were pre-incubated with 5 μL of 2× final enzyme concentration for 30 minutes before adding 5 μL of 2× final concentration of ATP and fructose. The plates were incubated at room temperature for 4 hours before adding ADP-Glo reagent to quench the enzyme reaction, followed by incubation at room temperature for 1 hour. The ADP-Glo detection reagent was then added to the plates and luminescence was measured on the Envision plate reader after 1 hour.", "values": [{"compound": "C[C@H]1CCN1c1nc2c(c(-c3ccc4c(cnn4C(=O)CN)c3)n1)CCC2", "note": "[Example 237, (S)-2-amino-1-(5-(2-(2-methylazetidin-1-yl)-6,7-dihydro-5H-cyclopenta[d]pyrimidin-4-yl)-1H-indazol-1-yl)ethan-1-one]", "pIC50": 7.57}, {"compound": "C[C@H]1CCN1c1nc2c(c(-c3ccc4nn(C(=O)CN)cc4c3)n1)CCC2", "note": "[Example 238, (S)-2-amino-1-(5-(2-(2-methylazetidin-1-yl)-6,7-dihydro-5H-cyclopenta[d]pyrimidin-4-yl)-2H-indazol-2-yl)ethan-1-one]", "pIC50": 7.17}]}, {"molecular_target": "human KHK-C (Homo sapiens (Human), UniProt P50053)", "assay": "KHK Biochemical Assay (IC50), ADP-Glo, KHK-C", "details": "average of at least two separate assays", "method": "as §1, §2, §3, §4", "values": [{"compound": "5-(7,7-difluoro-2-((2S,3R)-3-hydroxy-2-methylazetidin-1-yl)-6,7-dihydro-5H-cyclopenta[d]pyrimidin-4-yl)-2,3-dihydrospiro[indene-1,3′-[1,4]oxazepan]-5′-one [Example 552]", "pIC50": 7.41}, {"compound": "C[C@H]1[C@H](O)CN1c1nc(-c2ccc(OC(F)F)c([S@](C)(=N)=O)c2)c2c(n1)C(F)(F)CC2", "note": "(single isomer, unassigned) [Example 534]", "pIC50": 7.49}, {"compound": "COc1c(F)cc(-c2nc(N3C[C@@H](O)[C@@H]3C)nc3c2CCC3(F)F)cc1[S@@](C)(=N)=O", "note": "(single isomer, unassigned) [Example 536]", "pIC50": 8.21}, {"compound": "COc1c(F)cc(-c2nc(N3C[C@@H](O)[C@@H]3C)nc3c2CCC3(F)F)cc1[S@](C)(=N)=O", "note": "(single isomer, unassigned) [Example 537]", "pIC50": 7.67}, {"compound": "COc1ccc(-c2nc(N3C[C@@H](O)[C@@H]3C)nc3c2CCC3(F)F)cc1[S@](=N)(=O)C1CC1", "note": "(single isomer, unassigned) [Example 540]", "pIC50": 7.87}, {"compound": "CS(=O)(=O)N[C@H]1COc2cc(-c3nc(N4CC[C@H]4C(F)F)nc4c3CCC4(F)F)ccc21", "note": "(single isomer, unassigned) [Example 546]", "pIC50": 7.62}, {"compound": "C[C@H]1[C@H](O)CN1c1nc(-c2ccc3c(c2)CC[C@]32COCC(=O)N2)c2c(n1)C(F)(F)CC2", "note": "(single isomer, unassigned) [Example 550]", "pIC50": 8.30}, {"compound": "C[C@H]1[C@H](O)CN1c1nc(-c2ccc3c(c2)C(F)(F)C[C@H]3NS(C)(=O)=O)c2c(n1)C(F)(F)CC2", "note": "(single isomer, unassigned) [Example 635]", "pIC50": 8.54}, {"compound": "C[C@H]1[C@H](F)CN1c1nc(-c2ccc3c(c2)S(=O)(=O)C[C@H]3NS(C)(=O)=O)c2c(n1)C(F)(F)CC2", "note": "(single isomer, unassigned) [Example 680]", "pIC50": 8.85}, {"compound": "C[C@@H]1N(c2nc(-c3ccc4c(c3)S(=O)(=O)C[C@@H]4NS(C)(=O)=O)c3c(n2)C(F)(F)CC3)CC1(F)F", "note": "(single isomer, unassigned) [Example 681]", "pIC50": 9.30}, {"compound": "C[C@@H]1N(c2nc(-c3ccc4c(c3)S(=O)(=O)C[C@H]4NS(C)(=O)=O)c3c(n2)C(F)(F)CC3)CC1(F)F", "note": "(single isomer, unassigned) [Example 682]", "pIC50": 8.40}, {"compound": "C[C@H]1CCN1c1nc(-c2ccc([C@H](N)CS(C)(=O)=O)cc2)c2c(n1)C(F)(F)CC2", "note": "(single isomer, unassigned) [Example 775]", "pIC50": 8.37}, {"compound": "C[C@H]1CCN1c1nc(-c2ccc([C@@H](N)CS(C)(=O)=O)cc2)c2c(n1)C(F)(F)CC2", "note": "(single isomer, unassigned) [Example 776]", "pIC50": 8.55}, {"compound": "NC(=O)c1ccc(-c2nc(N3CC4(CCC4)C3)nc3c2CCC3)cc1", "note": "[Example 416, 4-(2-(2-azaspiro[3.3]heptan-2-yl)-6,7-dihydro-5H-cyclopenta[d]pyrimidin-4-yl)benzamide]", "pIC50": "< 5.30"}, {"compound": "NC(=O)c1ccc(-c2nc(N3CC4(COC4)C3)nc3c2CCC3)cc1", "note": "[Example 417, 4-(2-(2-oxa-6-azaspiro[3.3]heptan-6-yl)-6,7-dihydro-5H-cyclopenta[d]pyrimidin-4-yl)benzamide]", "pIC50": "< 5.30"}, {"compound": "C[C@H]1CCC(=O)N1c1nc2c(c(-c3ccc(C(N)=O)cc3)n1)CCC2", "note": "[Example 419, (S)-4-(2-(2-methyl-5-oxopyrrolidin-1-yl)-6,7-dihydro-5H-cyclopenta[d]pyrimidin-4-yl)benzamide]", "pIC50": "< 5.30"}]}]}
